Assay results: patent US8759363B2, “Quinazoline-based T cell proliferation inhibitors” (Yissum Research Development Company of the Hebrew …, priority 2010, dated 2014)
“Also recorded” adds a separate entry of the source. Read-outs that look alike come from different tables or passages of the source.

Assays:
ZAP-70 = target: T1, ZAP-70 (Homo sapiens, UniProt P43403); test: SLP-76 kinase assay with ZAP-70 immunoprecipitated from treated Jurkat cells; format: cell-based; conditions: ZAP-70 from Jurkat cells treated 16 h, recombinant SLP-76 substrate, dose-dependent
T1 construct: We also immunoprecipitated the ZAP-70 kinase from the treated/untreated cells; endogenous in cells; host or cells: Jurkat
T1 sequence (P43403 whole entry): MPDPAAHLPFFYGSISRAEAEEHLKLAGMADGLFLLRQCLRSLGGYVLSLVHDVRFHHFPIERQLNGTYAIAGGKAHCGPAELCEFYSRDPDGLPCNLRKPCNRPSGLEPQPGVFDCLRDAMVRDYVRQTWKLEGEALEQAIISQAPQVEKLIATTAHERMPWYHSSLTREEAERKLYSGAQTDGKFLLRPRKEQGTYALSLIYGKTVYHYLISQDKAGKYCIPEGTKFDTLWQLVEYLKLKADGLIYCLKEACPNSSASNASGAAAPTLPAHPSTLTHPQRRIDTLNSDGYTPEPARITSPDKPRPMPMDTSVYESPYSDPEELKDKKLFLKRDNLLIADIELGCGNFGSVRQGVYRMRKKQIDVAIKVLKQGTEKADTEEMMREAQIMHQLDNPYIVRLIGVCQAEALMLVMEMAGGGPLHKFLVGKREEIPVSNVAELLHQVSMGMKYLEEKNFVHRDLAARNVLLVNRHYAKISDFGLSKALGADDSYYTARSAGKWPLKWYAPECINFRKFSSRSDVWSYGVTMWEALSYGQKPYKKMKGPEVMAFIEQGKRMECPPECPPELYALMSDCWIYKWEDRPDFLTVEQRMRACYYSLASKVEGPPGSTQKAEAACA
Method: ZAP-70 was immunoprecipitated as described above. The immune complexes were washed 2 times with lysis buffer and 2 times with kinase buffer (50 mM Tris pH 7.5, 100 mM NaCl and 10 mM MgCl2). The beads were resuspended in 30 μl of kinase buffer containing 3 μg of His-tagged, full-length human SLP-76 protein (kindly provided by Dr. Yablonski, Technion, Israel), and the kinase reactions were initiated by the addition of 10 μl kinase buffer containing 5 μM ATP. The reactions proceeded for 15 min at 30° C. and were stopped by the addition of 6 μL EDTA (100 mM) and sample buffer. The results were analyzed by western blot [Yablonski, 1998]
Jurkat cells were treated with 2 for 16 h, and SLP-76 phosphorylation was measured by immunoprecipitation of SLP-76 protein followed by western blotting with an antibody to the phosphorylated tyrosines of the protein (FIG. 6A). We also immunoprecipitated the ZAP-70 kinase from the treated/untreated cells, and tested its ability to phosphorylate recombinant SLP-76 protein as substrate (FIG. 6B). […] Presumably the remaining SLP-76 activity was sufficient to allow IL-2 secretion.

Jurkat cells = test: Jurkat cell proliferation, BrdU incorporation; format: cell-based, human; conditions: BrdU uptake
Method: Cells were depleted of fetal calf serum (FCS) for 12 hours. They were then stimulated to proliferate by addition of ConA (10 μg/ml) for PBMC from healthy individuals and for Jurkat cells, FCS (10%) for HEK293 and A375 cells, PDGF (30 ng/ml) for NIH 3T3 cells, and EGF (30 ng/ml) for MDA-MB-231, Cells (1×10^5) were cultured in 96-well plates for 3 days in the presence or absence of inhibitors at the concentrations specified in the text. Each condition was tested in duplicate wells.
Proliferation was assessed by BrdU incorporation using a colorimetric ELISA kit (Roche, Germany). Subsequent to labeling with 10 μM BrdU, DNA was denatured and the cells were incubated with anti-BrdU-POD, prior to the addition of colorimetric substrate (TMB). The reaction product was quantified by measuring absorbance at 450 nm in an ELISA plate reader (ELx800 BIO-TEK Instruments Inc.).
Since we were not prejudiced towards any specific protein kinase, we used a biological assay for T cell proliferation. We tested our libraries for inhibition of proliferation of PBMC and Jurkat cells (Table 3). Cell proliferation was measured by BrdU uptake. […] PBMC cells were stimulated by a non-specific T cell mitogen, Concanavalin A (ConA). All of the compounds that were tested inhibited proliferation at micromolar or sub-micromolar concentrations.

[1] = system: IL-2 secretion by Jurkat and PBMC cells; test: IL-2 secretion after stimulation, ELISA; format: cell-based, human; conditions: anti-TCR, anti-CD28, PMA, ionomycin, ConA stimulation; up to 5 μM inhibitor
Method: Jurkat or PBMC cells were treated for 12 h with 1 μM, 0.5 μM or no inhibitor. Cells (1×10^6) were plated in 24-well plates (Nunc) and stimulated by C305 (dilution 1:500), anti-CD28 (1:100), PMA (50 ng/ml) or ionomycin (1 μM) for 12 h. Alternately, cells were stimulated for 24, 48 and 72 h in MLR. After stimulation cells were centrifuged at 130×g for 5 minutes at room temperature.
Supernatants were collected and IL-2 was assayed using the IL-2 ELISA kit (BioSource International USA, KH0022) according to the manufacturer's instructions. Absorbance was read at 450 nm in an ELISA plate reader (ELx800 BIO-TEK Instruments Inc.).
Jurkat cells, which originate from leukemia, divide with no need of exogenous IL-2 stimulation since they produce their own, whereas PBMC proliferation requires exogenous IL-2 for growth. As expected, IL-2 secretion levels were lower in cells isolated from the blood (PBMC) than in Jurkat cells (FIGS. 5A-B). We analyzed the effect of 2 on IL-2 secretion in both Jurkat (FIG. 5A) and PBMC (FIG. 5B) cells, using a variety of T cell stimuli. Cells were stimulated with an antibody to the TCR alone or in combination with anti-CD28 or phorbol 12-myristate 13-acetate (PMA). In order to bypass the TCR, we also stimulated the cells with a combination of ionomycin, PMA and anti-CD28 (FIG. 5A). […]

[2] = system: NIH 3T3, A-431, MDA-MB-468, PANC-1, human keratinocytes; test: Growth of non-hematopoietic cell lines; format: cell-based; conditions: at high concentrations at which Jurkat and PBMC growth was strongly inhibited
Method: The inhibitor-treated cultures and controls were fixed in glutaraldehyde, 0.05% final concentration, for 10 min at room temperature. After washing, the plates were stained with 0.1% methylene blue in 0.1 M borate buffer, for 60 min at room temperature. The plates were rigorously washed to remove excess dye and dried. The dye taken up by cells was eluted in 0.1N HCl for 60 min at 37° C., and the OD of the solution was read at 620 nm. In preliminary titration experiments, linear readings were obtained for 1×10^3 to 4×10^4 cells/well.
To characterize the mode of action of 2 (S101) in more detail, we first examined whether 2 inhibits non-hematopoietic cell lines. We studied the effect of 2 on the growth of four cell lines: NIH 3T3 (mouse embryonic fibroblasts), A-431 (human vulval carcinoma cells), MDA-MB-468 (human breast carcinoma cells), and PANC-1 (human pancreatic carcinoma cells) (FIGS. 1A-B). We also tested the inhibitors on human keratinocytes. […] We also examined the effect of 2 on BrdU uptake by stimulated and non-stimulated PC-3 (human prostate cancer), HEK293 (human embryonic kidney), NIH-3T3, A375 (human malignant melanoma), and MDA-MB-231 (human breast adenocarcinoma).

SMILES: COc1cc(-c2nc(Nc3ccc(C)cc3)c3ccccc3n2)cc(OC)c1OC [Compound 2, N-p-tolyl-2-(3,4,5-trimethoxyphenyl)quinazolin-4-amine]
- activity of ZAP-70 (ZAP-70): inhibited
- IC50 (Jurkat cells; nM ± SD, read-out: IC50 Jurkat cells proliferation inhibition): 29 ± 0.23 nM
- IC50 (Jurkat cells; Homo sapiens, Jurkat, nM ± SD, read-out: IC50 Jurkat cells proliferation inhibition): 30 nM
- IC50 (Jurkat cells; Homo sapiens, Jurkat, non-stimulated, read-out: IC50 of non-stimulated cells): 50 nM
- IC50 (Jurkat cells; Homo sapiens, Jurkat, stimulated, read-out: IC50 of stimulated cells): 100 nM
- effect on IL-2 levels in the medium [1]: no effect; also recorded: did not affect
- effect on growth of non-hematopoietic cell types [2]: slightly affected
